From patent US20250320184A1 (SIRONAX LTD., priority 2022, published 2025)

Biological target: T1, SARM1 (50-724) (Homo sapiens, UniProt Q6SZW1)
T1 sequence (Q6SZW1 50-724): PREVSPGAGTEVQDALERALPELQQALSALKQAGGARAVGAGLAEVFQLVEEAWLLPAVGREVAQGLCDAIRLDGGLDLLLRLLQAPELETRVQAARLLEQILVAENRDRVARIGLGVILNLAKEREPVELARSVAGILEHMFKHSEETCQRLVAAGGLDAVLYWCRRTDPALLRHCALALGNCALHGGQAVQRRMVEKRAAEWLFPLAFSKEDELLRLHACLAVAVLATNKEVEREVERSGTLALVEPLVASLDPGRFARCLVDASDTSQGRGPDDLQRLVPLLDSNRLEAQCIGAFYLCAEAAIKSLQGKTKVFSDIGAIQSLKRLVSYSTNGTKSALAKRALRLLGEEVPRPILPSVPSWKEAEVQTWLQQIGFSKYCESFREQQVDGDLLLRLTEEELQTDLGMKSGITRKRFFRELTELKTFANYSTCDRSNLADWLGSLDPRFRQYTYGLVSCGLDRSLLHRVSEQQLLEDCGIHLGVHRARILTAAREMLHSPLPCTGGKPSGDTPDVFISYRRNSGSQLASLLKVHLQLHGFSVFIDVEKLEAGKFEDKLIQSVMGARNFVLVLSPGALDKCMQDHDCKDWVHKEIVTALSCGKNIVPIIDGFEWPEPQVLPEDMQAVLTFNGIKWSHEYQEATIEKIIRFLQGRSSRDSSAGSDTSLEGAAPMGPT
Test: biochemical
Experimental: An enzymatic assay was performed in a 384-well plate using Dulbecco's phosphate-buffered saline (PBS) as the reaction buffer. […] The reaction was initiated by adding a mixture of 200 μM nicotinamide mononucleotide (NMN) as activator and 100 μM NAD^+ as substrate. After 1 h of incubation at room temperature, the reaction was terminated with 10 times volume of 70% acetonitrile, then centrifuged at 3800 rpm for 10 min.

Row | IC50 [nM] | SMILES
1 | < 100 | CC1(C)C(=O)N(CCO)c2cc(NS(=O)(=O)c3cccc(Cl)c3Cl)ccc21 [Compound 240, 2,3-dichloro-N-(1-(2-hydroxyethyl)-3,3-dimethyl-2-oxoindolin-6-yl)benzenesulfonamide]
2 | < 100 | CC1(C)C(=O)N(CC(=O)O)c2cc(NS(=O)(=O)c3cccc(Cl)c3Cl)ccc21 [Compound 241, 2-[6-[(2,3-dichlorophenyl)sulfonylamino]-3,3-dimethyl-2-oxo-indolin-1-yl]acetic Acid]
3 | < 100 | CC1(C)CN(C(N)=O)c2cc(NS(=O)(=O)c3cccc(Cl)c3Cl)ccc21 [Compound 242, 6-((2,3-dichlorophenyl)sulfonamido)-3,3-dimethylindoline-1-carboxamide]
4 | < 100 | CC1(C)CN(C(=O)C2CC2)c2cc(NS(=O)(=O)c3cccc(Cl)c3Cl)ccc21 [Compound 243, 2,3-dichloro-N-(1-(cyclopropanecarbonyl)-3,3-dimethylindolin-6-yl)benzenesulfonamide]
5 | < 100 | O=S(=O)(Nc1ccc(Cc2cncs2)cc1)c1cccc(Cl)c1Cl [Compound 251, 2,3-dichloro-N-(4-(thiazol-5-ylmethyl)phenyl)benzenesulfonamide]
6 | < 100 | CC1(C)C(=O)N(CC(N)=O)c2cc(NS(=O)(=O)c3cccc(Cl)c3Cl)ccc21 [Compound 255, 2-[6-[(2,3-dichlorophenyl)sulfonylamino]-3,3-dimethyl-2-oxo-indolin-1-yl]acetamide]
7 | < 100 | CC1(C)CC(=O)c2cc(NS(=O)(=O)c3cccc(Cl)c3Cl)ccc21 [Compound 264, 2,3-dichloro-N-(1,1-dimethyl-3-oxo-2,3-dihydro-1H-inden-5-yl)benzenesulfonamide]
8 | < 100 | CC1(C)CNC(=O)c2cc(NS(=O)(=O)c3cccc(Cl)c3Cl)ccc21 [Compound 265, 2,3-dichloro-N-(4,4-dimethyl-1-oxo-1,2,3,4-tetrahydroisoquinolin-7-yl)benzenesulfonamide]
9 | 100 to 500 | CC1(C)Cc2ccc(NS(=O)(=O)c3cccc(Cl)c3Cl)cc2NC1=O [Compound 268, 2,3-dichloro-N-(3,3-dimethyl-2-oxo-1,4-dihydroquinolin-7-yl)benzenesulfonamide]
10 | < 100 | CC1(C)C(=O)N(CCCO)c2cc(NS(=O)(=O)c3cccc(Cl)c3Cl)ccc21 [Compound 273]
11 | < 100 | CC1(C)C(=O)N(CCC(N)=O)c2cc(NS(=O)(=O)c3cccc(Cl)c3Cl)ccc21 [Compound 279, 3-(6-((2,3-dichlorophenyl)sulfonamido)-3,3-dimethyl-2-oxoindolin-1-yl)propanamide]
12 | < 100 | CC1(C)C(=O)N(CCCC(N)=O)c2cc(NS(=O)(=O)c3cccc(Cl)c3Cl)ccc21 [Compound 280, 4-(6-((2,3-dichlorophenyl)sulfonamido)-3,3-dimethyl-2-oxoindolin-1-yl)butanamide]
13 | < 100 | CC1(C)CN(C(=O)c2ccccn2)c2cc(NS(=O)(=O)c3cccc(Cl)c3Cl)ccc21 [Compound 281, 2,3-dichloro-N-(3,3-dimethyl-1-picolinoylindolin-6-yl)benzenesulfonamide]
14 | < 100 | CC1(C)CN(C(=O)C2CCOCC2)c2cc(NS(=O)(=O)c3cccc(Cl)c3Cl)ccc21 [Compound 284, 2,3-dichloro-N-[3,3-dimethyl-1-(tetrahydropyran-4-carbonyl)indolin-6-yl]benzenesulfonamide]
15 | < 100 | CC1(C)CN(C(=O)c2cccnc2)c2cc(NS(=O)(=O)c3cccc(Cl)c3Cl)ccc21 [Compound 285, 2,3-dichloro-N-(3,3-dimethyl-1-nicotinoylindolin-6-yl)benzenesulfonamide]
16 | < 100 | CC(Nc1ccc2c(c1)c(N)nn2C)c1nc(Cl)c(Cl)s1 (stereo not drawn) [Compound 288, N5-(1-(4,5-dichlorothiazol-2-yl)ethyl)-1-methyl-1H-indazole-3,5-diamine]
17 | < 100 | CC1(C)c2ccc(NS(=O)(=O)c3cccc(Cl)c3Cl)cc2C(=O)N1CC(N)=O [Compound 289, 2-(5-((2,3-dichlorophenyl)sulfonamido)-1,1-dimethyl-3-oxoisoindolin-2-yl)acetamide]
18 | < 100 | Cn1ccc(C(=O)N2CC(C)(C)c3ccc(NS(=O)(=O)c4cccc(Cl)c4Cl)cc32)n1 [Compound 295, 2,3-dichloro-N-(3,3-dimethyl-1-(1-methyl-1H-pyrazole-3-carbonyl)indolin-6-yl)benzenesulfonamide]
19 | < 100 | CC1(C)CN(C(=O)CC(N)=O)c2cc(NS(=O)(=O)c3cccc(Cl)c3Cl)ccc21 [Compound 299, 3-(6-((2,3-dichlorophenyl)sulfonamido)-3,3-dimethylindolin-1-yl)-3-oxopropanamide]
20 | 100 to 500 | CC1(C)c2ccc(NS(=O)(=O)c3cccc(Cl)c3Cl)cc2C(=O)N1CCO [Compound 303]

Row | IC50 [nM] | SMILES
21 | < 100 | NC(=O)Cn1ccc2ccc(NS(=O)(=O)c3cccc(Cl)c3Cl)cc2c1=O [Compound 306, 2-(7-((2,3-dichlorophenyl)sulfonamido)-1-oxoisoquinolin-2(1H)-yl)acetamide]
22 | < 100 | CC1(C)C(=O)N(Cc2ccncc2)c2cc(NS(=O)(=O)c3cccc(Cl)c3Cl)ccc21 [Compound 309, 2,3-dichloro-N-(3,3-dimethyl-2-oxo-1-(pyridin-4-ylmethyl)indolin-6-yl)benzenesulfonamide]
23 | < 100 | CC1(C)CN(C(=O)C2(C(N)=O)CC2)c2cc(NS(=O)(=O)c3cccc(Cl)c3Cl)ccc21 [Compound 313, 1-(6-((2,3-dichlorophenyl)sulfonamido)-3,3-dimethylindoline-1-carbonyl)cyclopropane-1-carboxamide]
24 | < 100 | CC1(C)CN(S(N)(=O)=O)c2cc(NS(=O)(=O)c3cccc(Cl)c3Cl)ccc21 [Compound 319, 6-((2,3-dichlorophenyl)sulfonamido)-3,3-dimethylindoline-1-sulfonamide]
25 | < 100 | CC(Nc1ccc2cc[nH]c(=O)c2c1)c1nn(C2CCC2)c(Cl)c1Cl (stereo not drawn) [Compound 322, 7-((1-(4,5-dichloro-1-cyclobutyl-1H-pyrazol-3-yl)ethyl)amino)isoquinolin-1(2H)-one]
26 | < 100 | CC1(C)CN(C(=O)c2cc[nH]c(=O)c2)c2cc(NS(=O)(=O)c3cccc(Cl)c3Cl)ccc21 [Compound 326, 2,3-dichloro-N-(3,3-dimethyl-1-(2-oxo-1,2-dihydropyridine-4-carbonyl)indolin-6-yl)benzenesulfonamide]
27 | < 100 | CC1(C)C(=O)N(CC2CNC(=O)CO2)c2cc(NS(=O)(=O)c3cccc(Cl)c3Cl)ccc21 (stereo not drawn) [Compound 333, 2,3-dichloro-N-(3,3-dimethyl-2-oxo-1-((5-oxomorpholin-2-yl)methyl)indolin-6-yl)benzenesulfonamide]
28 | < 100 | CC(Nc1cc(F)c2ncn(C3CC(O)C3)c(=O)c2c1)c1nc(Cl)c(Cl)s1 (stereo not drawn) [Compound 340, 6-((1-(4,5-dichlorothiazol-2-yl)ethyl)amino)-8-fluoro-3-(3-ydroxycyclobutyl)quinazolin-4(3H)-one]
29 | > 1000 | Cc1ccc(C)c(S(=O)(=O)Nc2ccc3c(c2)C(=O)NCC3)c1 [Example 2A, 2,5-dimethyl-N-(1-oxo-1,2,3,4-tetrahydroisoquinolin-7-yl)benzenesulfonamide]
30 | > 1000 | Cc1ccc(S(=O)(=O)Nc2ccc3c(c2)C(=O)NCC3)c(C)c1 [Example 3A, 2,4-dimethyl-N-(1-oxo-1,2,3,4-tetrahydroisoquinolin-7-yl)benzenesulfonamide]
31 | > 1000 | Cc1cc(F)ccc1S(=O)(=O)Nc1ccc2c(c1)C(=O)NCC2 [Example 4A, 4-fluoro-2-methyl-N-(1-oxo-1,2,3,4-tetrahydroisoquinolin-7-yl)benzenesulfonamide]
32 | < 100 | Cc1c(Cl)cccc1S(=O)(=O)Nc1ccc2c(c1)C(=O)NCC2 [Example 5A, 3-chloro-2-methyl-N-(1-oxo-1,2,3,4-tetrahydroisoquinolin-7-yl)benzenesulfonamide]
33 | > 1000 | O=C1NCCc2ccc(NS(=O)(=O)c3ccccc3Cl)cc21 [Example 6A, 2-chloro-N-(1-oxo-1,2,3,4-tetrahydroisoquinolin-7-yl)benzenesulfonamide]
34 | > 1000 | Cc1cc(S(=O)(=O)Nc2ccc(CC(N)=O)cc2)c(F)cc1F [Example 8A]
35 | > 1000 | O=C1NCCc2ccc(NS(=O)(=O)c3ccc(F)c(Cl)c3)cc21 [Example 9A, 3-chloro-4-fluoro-N-(1-oxo-1,2,3,4-tetrahydroisoquinolin-7-yl)benzenesulfonamide]
36 | 500 to 1000 | Cc1cc(C)c(S(=O)(=O)Nc2ccc3c(c2)C(=O)NCC3)c(C)c1 [Example 10A, 2,4,6-trimethyl-N-(1-oxo-1,2,3,4-tetrahydroisoquinolin-7-yl)benzenesulfonamide]
37 | 500 to 1000 | CC(Nc1ccc2cn[nH]c2c1)c1cccc(Cl)c1Cl (stereo not drawn) [Example 12A, N-(1-(2,3-dichlorophenyl)ethyl)-1H-indazol-6-amine]
38 | > 1000 | CC(Nc1ccc2ccccc2c1)c1cccc(Cl)c1Cl (stereo not drawn) [Example 13A, N-(1-(2,3-dichlorophenyl)ethyl)naphthalen-2-amine]
39 | > 1000 | O=C1NCCc2ccc(NS(=O)(=O)c3ccc(F)cc3F)cc21 [Example 14A, 2,4-difluoro-N-(1-oxo-1,2,3,4-tetrahydroisoquinolin-7-yl)benzenesulfonamide]
